Publication PMC4569013, “Massive Bioaccumulation and Self‐Assembly of Phenazine Compounds in Live Cells” (Advanced Science, 2015)

Legend:
RAW264.7 macrophages = test: Confocal fluorescence microscopy, intracellular localization of inclusions; format: cell-based; settings: 5 × 10^−6 M, 72 h, live cells
Method: (§1) Confocal Fluorescent Microscopy: A Nikon A1 confocal microscope was used for further investigation of live cells incubated with chiral pairs of compounds (T and U) and the parent compound, P. Since crystals or vesicular forms containing chemicals inside the cells incubated with Compound P, T, or U were fluorescent when viewed with the TRITC filter sets, intracellular distribution of these compounds in RAW264.7 or MDCK cells were visualized using a Nikon A1 confocal microscopy (Nikon Instruments Inc., Melville, NY) equipped with diode‐based lasers and a Nikon Apo 60×/1.4 NA oil immersion lens. Briefly, RAW264.7 macrophages or MDCK epithelial cells were seeded in the 8‐well Nunc Lab‐Tek II chambered (#1.5) cover glasses (Thermo Scientific, Pittsburgh, PA) at a density of 8 × 10^3 cells cm^−2 (RAW264.7 cells) or 1.5 × 10^4 cells cm^−2 (MDCK cells) and allowed to adhere overnight (37 °C, 5% CO2). Then, 5 × 10^−6 M of Compound “P” or the related isomers, “T” or “U” in DMEM with 5% FBS (300 μL) was added to the cells and the cells were incubated for 72 h (37 °C, 5% CO2). For live cell imaging, after the removal of media, cells were washed with HBSS buffer twice. Hoechst 33342 (Invitrogen, Carlsbad, CA) was used for staining cell nuclei and FM 1‐43 (Molecular Probes T35356, Invitrogen) for the plasma membrane. Cells were incubated with 300 μL of 1:1 (v/v) dye mixtures of 5 μg mL^−1 Hoechst 33342 and 7 × 10^−6 M FM 1‐43 in HBSS for 15 min at room temperature. Without fixative, the confocal imaging of the live cells was performed using lasers for DAPI (excitation/emission wavelength: 405 nm/450 ± 25 nm), FITC (488 nm/525 ± 25 nm), and TRITC (561 nm/596 ± 25 nm) channels. Z‐stack images of the cells were captured along the Z‐axis (interval, 1 μm) in three fluorescence channels and analyzed by using the Nikon NIS‐Elements 3.2 confocal software (Nikon Instruments Inc., Melville, NY). […]

MDCK epithelial cells = test: as above; format: cell-based, Canine; settings: 5 × 10^−6 M, 72 h, live cells
Method: as §1

C[C@@H](CN=c1cc2n(-c3ccc(Cl)cc3)c3ccccc3nc-2cc1Nc1ccc(Cl)cc1)c1ccccc1 [Compound U]
Intracellular localization of compound (fluorescence, TRITC channel) (RAW264.7 macrophages): localized at the periphery of the cell nuclei
Intracellular localization of compound (fluorescence, TRITC channel) (MDCK epithelial cells): localized at the periphery of the cell nuclei

Clc1ccc(Nc2cc3nc4ccccc4n(-c4ccc(Cl)cc4)c-3cc2=NCCc2ccccc2)cc1 [Compound P]
Intracellular localization of compound (fluorescence, TRITC channel) (RAW264.7 macrophages): localized at the periphery of the cell nuclei
Intracellular localization of compound (fluorescence, TRITC channel) (MDCK epithelial cells): localized at the periphery of the cell nuclei
